Source: patent US10681909B2, “Herbicidal triazoles” (FMC Corporation, priority 2014, dated 2020)

Legend:
velvetleaf [1] = assay: Test A preemergence; format: in vivo, Abutilon theophrasti; details: Abutilon theophrasti, pre-emergence, 240 h, 0 to 100 scale (0 no effect, 100 complete control), read-out: Plant response rating, Velvetleaf; for pest or weed control at 125 g/ha: 125 g ai/ha; for pest or weed control at 500 g/ha: 500 g ai/ha, approx. 10 d
In short: (§1)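 Plant seeds in loam soil blended with sand, then apply test chemical preemergence as a directed soil spray; in parallel, spray potted seedlings (one- to two-leaf, 2 to 10 cm) postemergence. Both treatments use a non-phytotoxic solvent mixture with surfactant.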

crabgrass, large = assay: Test A preemergence; format: in vivo, Digitaria sanguinalis; details: Digitaria sanguinalis, pre-emergence, 240 h, 0 to 100 scale (0 no effect, 100 complete control), read-out: Plant response rating, Crabgrass, Large; for pest or weed control at 125 g/ha: 125 g ai/ha; for pest or weed control at 500 g/ha: 500 g ai/ha, approx. 10 d
In short: as §1

velvetleaf [2] = assay: Test A postemergence; format: in vivo, Abutilon theophrasti; details: Abutilon theophrasti, post-emergence, 240 h, 0 to 100 scale (0 no effect, 100 complete control), approx. 10 d, read-out: Plant response rating, Velvetleaf; for pest or weed control at 125 g/ha: 125 g ai/ha; for pest or weed control at 500 g/ha: 500 g ai/ha
In short: as §1

barnyardgrass = assay: Test C preemergence; format: in vivo, Echinochloa crus-galli; details: for Plant response rating (scale of 0 to 100 where 0 is no effect and 100 is complete control): Barnyardgrass, preemergence; for Barnyardgrass plant response rating (0 to 100): Preemergence, visual rating after 13 to 15 d
Description: (§2) Seeds of plant species selected from blackgrass (Alopecurus myosuroides), ryegrass, Italian (Italian ryegrass, Lolium multiflorum), wheat (winter wheat, Triticum aestivum), galium (catchweed bedstraw, Galium aparine), corn (Zea mays), crabgrass, large (large crabgrass, Digitaria sanguinalis), foxtail, giant, (giant foxtail, Setaria faberii), johnsongrass (Sorghum halepense), lambsquarters (Chenopodium album), morningglory (Ipomoea coccinea), nutsedge, yellow (yellow nutsedge, Cyperus esculentus), pigweed (Amaranthus retroflexus), ragweed (common ragweed, Ambrosia elatior), soybean (Glycine max), barnyardgrass (Echinochloa crus-galli), oilseed rape (Brassica napus), waterhemp (common waterhemp, Amaranthus rudis), and velvetleaf (Abutilon theophrasti) were planted into a blend of loam soil and sand and treated preemergence with test chemicals formulated in a non-phytotoxic solvent mixture which included a surfactant. At the same time, plants selected from these crop and weed species and also chickweed (common chickweed, Stellaria media), oat, wild (wild oat, Avena fatua), and kochia (Kochia scoparia), were planted in pots containing Sunshine Redi-Earth® planting medium comprising spaghnum peat moss, vermiculite, starter nutrients and dolomitic limestone and treated with postemergence applications of test chemicals formulated in the same manner. Plants ranged in height from 2 to 18 cm (1- to 4-leaf stage) for postemergence treatments. […] A dash (-) response means no test result.

morningglory = assay: Test C preemergence; format: in vivo, Ipomoea coccinea; details: for Plant response rating (scale of 0 to 100 where 0 is no effect and 100 is complete control): Morningglory, preemergence; for Morningglory plant response rating (0 to 100): Preemergence, visual rating after 13 to 15 d
Description: as §2

corn = assay: Test C preemergence; format: in vivo, Zea mays; details: for Plant response rating (scale of 0 to 100 where 0 is no effect and 100 is complete control): Corn, preemergence; for Corn plant response rating (0 to 100): Preemergence, visual rating after 13 to 15 d
Description: as §2

wheat (winter wheat) = assay: Test C preemergence; format: in vivo, Triticum aestivum; details: for Wheat plant response rating (0 to 100): Preemergence, visual rating after 13 to 15 d; for Plant response rating (scale of 0 to 100 where 0 is no effect and 100 is complete control): Wheat, preemergence, 250 g ai/ha
Description: as §2

oilseed rape = assay: Test C preemergence; format: in vivo, Brassica napus; details: for Plant response rating (scale of 0 to 100 where 0 is no effect and 100 is complete control): Oilseed Rape, preemergence; for Oilseed Rape plant response rating (0 to 100): Preemergence, visual rating after 13 to 15 d
Description: as §2

Compound | pest or weed control at 125 g/ha (velvetleaf [1]) | pest or weed control at 500 g/ha (velvetleaf [1]) | pest or weed control at 125 g/ha (crabgrass, large) | pest or weed control at 500 g/ha (crabgrass, large) | pest or weed control at 125 g/ha (velvetleaf [2]) | pest or weed control at 500 g/ha (velvetleaf [2]) | Plant response rating (scale of 0 to 100 where 0 is no effect and 100 is complete control) (barnyardgrass; 125 g ai/ha) | Plant response rating (scale of 0 to 100 where 0 is no effect and 100 is complete control) (barnyardgrass; 250 g ai/ha) | Barnyardgrass plant response rating (0 to 100) (barnyardgrass; 31 g ai/ha) | Barnyardgrass plant response rating (0 to 100) (barnyardgrass; 62 g ai/ha) | Plant response rating (scale of 0 to 100 where 0 is no effect and 100 is complete control) (morningglory; 125 g ai/ha) | Plant response rating (scale of 0 to 100 where 0 is no effect and 100 is complete control) (morningglory; 250 g ai/ha) | Morningglory plant response rating (0 to 100) (morningglory; 31 g ai/ha) | Morningglory plant response rating (0 to 100) (morningglory; 62 g ai/ha) | Plant response rating (scale of 0 to 100 where 0 is no effect and 100 is complete control) (corn; 125 g ai/ha) | Plant response rating (scale of 0 to 100 where 0 is no effect and 100 is complete control) (corn; 250 g ai/ha) | Corn plant response rating (0 to 100) (corn; 31 g ai/ha) | Corn plant response rating (0 to 100) (corn; 62 g ai/ha) | Wheat plant response rating (0 to 100) (wheat (winter wheat); 31 g ai/ha) | Wheat plant response rating (0 to 100) (wheat (winter wheat); 62 g ai/ha) | also measured
Cn1nc(-c2ccc(F)cc2)nc1Oc1cccc(C(F)(F)F)c1 [Compound 5, 3-(4-fluorophenyl)-1-methyl-5-[3-(trifluoromethyl)phenoxy]-1H-1,2,4-triazole] | 0% | 0% | 70% | 100% | 30% | 60% | – | – | – | – | – | – | – | – | – | – | – | – | – | – | –
CCCc1nc(-c2ccc(F)cc2)nn1Cc1ccnc(C(F)(F)F)c1 [Compound 6, 4-[[3-(4-fluorophenyl)-5-propyl-1H-1,2,4-triazol-1-yl]methyl]-2-(trifluoromethyl)pyridine] | 40% | 100% | 100% | 100% | 90% | 100% | 95 | 98 | 50 | 75 | 75 | 100 | 45 | 60 | 50 | 50 | 15 | 35 | 0 | 10 | Plant response rating (scale of 0 to 100 where 0 is no effect and 100 is complete control) (wheat (winter wheat)): 60; Plant response rating (scale of 0 to 100 where 0 is no effect and 100 is complete control) (oilseed rape; 125 g ai/ha): 100; Plant response rating (scale of 0 to 100 where 0 is no effect and 100 is complete control) (oilseed rape; 250 g ai/ha): 100; Oilseed Rape plant response rating (0 to 100) (oilseed rape; 31 g ai/ha): 70; Oilseed Rape plant response rating (0 to 100) (oilseed rape; 62 g ai/ha): 100
COc1nc(-c2ccc(F)cc2)nn1Cc1ccnc(C(F)(F)F)c1 [Compound 9, 4-[[3-(4-fluorophenyl)-5-methoxy-1H-1,2,4-triazol-1-yl]methyl]-2-(trifluoromethyl)pyridine] | 0% | 80% | 100% | 100% | 50% | 90% | 70 | 85 | 5 | 35 | 45 | 90 | 5 | 45 | 25 | 55 | 0 | 5 | 0 | 5 | Plant response rating (scale of 0 to 100 where 0 is no effect and 100 is complete control) (wheat (winter wheat)): 25; Plant response rating (scale of 0 to 100 where 0 is no effect and 100 is complete control) (oilseed rape; 125 g ai/ha): 95; Plant response rating (scale of 0 to 100 where 0 is no effect and 100 is complete control) (oilseed rape; 250 g ai/ha): 100; Oilseed Rape plant response rating (0 to 100) (oilseed rape; 31 g ai/ha): 0; Oilseed Rape plant response rating (0 to 100) (oilseed rape; 62 g ai/ha): 60
Cn1nc(-c2ccc(F)cc2)nc1C(O)c1ccnc(C(F)(F)F)c1 (stereo not drawn) [Compound 14, α-[3-(4-fluorophenyl)-1-methyl-1H-1,2,4-triazol-5-yl]-2-(trifluoromethyl)-4-pyridinemethanol] | 0% | 0% | 60% | 100% | 30% | 50% | – | – | – | – | – | – | – | – | – | – | – | – | – | – | –
CCn1nc(-c2ccc(F)cc2)nc1C(O)c1ccnc(C(F)(F)F)c1 (stereo not drawn) [Compound 15, α-[1-Ethyl-3-(4-fluorophenyl)-1H-1,2,4-triazol-5-yl]-2-(trifluoromethyl)-4-pyridinemethanol] | 0% | 0% | 10% | 30% | 0% | 0% | – | – | – | – | – | – | – | – | – | – | – | – | – | – | –
CCCn1nc(-c2ccc(F)cc2)nc1Cc1ccnc(C(F)(F)F)c1 [Compound 17, 4-[[3-(4-fluorophenyl)-1-propyl-1H-1,2,4-triazol-5-yl]methyl]-2-(trifluoromethyl)pyridine] | 90% | 100% | 100% | 100% | 90% | 100% | – | – | – | – | – | – | – | – | – | – | – | – | – | – | –
CCn1nc(-c2ccc(F)cc2)nc1C(=O)c1ccnc(C(F)(F)F)c1 [Compound 19, [1-ethyl-3-(4-fluorophenyl)-1H-1,2,4-triazol-5-yl][2-(trifluoromethyl)-4-pyridinyl]methanone] | 0% | 0% | 0% | 50% | 0% | 0% | – | – | – | – | – | – | – | – | – | – | – | – | – | – | –
CS(=O)(=O)c1nc(-c2ccc(F)cc2)nn1Cc1ccnc(C(F)(F)F)c1 [Compound 29, 4-[[3-(4-fluorophenyl)-5-(methylsulfonyl)-1H-1,2,4-triazole-1-yl]methyl]-2-(trifluoromethyl)pyridine] | 0% | 0% | 0% | 0% | 0% | 0% | – | – | – | – | – | – | – | – | – | – | – | – | – | – | –
COc1nc(-c2ccccc2)nn1Cc1ccnc(C(F)(F)F)c1 [Compound 32] | – | – | – | – | – | – | 10 | 75 | 0 | 5 | 5 | 45 | 0 | 5 | 5 | 20 | 0 | 0 | 0 | 0 | Plant response rating (scale of 0 to 100 where 0 is no effect and 100 is complete control) (wheat (winter wheat)): 0; Plant response rating (scale of 0 to 100 where 0 is no effect and 100 is complete control) (oilseed rape; 125 g ai/ha): 10; Plant response rating (scale of 0 to 100 where 0 is no effect and 100 is complete control) (oilseed rape; 250 g ai/ha): 85; Oilseed Rape plant response rating (0 to 100) (oilseed rape; 31 g ai/ha): 5; Oilseed Rape plant response rating (0 to 100) (oilseed rape; 62 g ai/ha): 20
